# In patent US7635711B2, “Glucocorticoid mimetics, methods of making them, pharmaceutical compositions, and uses thereof” (Boehringer-Ingelheim Pharmaceuticals, Inc., priority 2004, dated 2009):
# Key:
# glucocorticoid receptor = experiment: one or more of the above assays (GR binding and GR cell assays for agonist/antagonist activity); format: cell-based; conditions: in one or more of the above assays
# Description: Compounds found to bind to the glucocorticoid receptor may be evaluated for dissociation of transactivation and transrepression by assays cited in the Background of the Invention (C. M. Bamberger and H. M. Schulte, Eur. J. Clin. Invest., 2000, 30 (suppl. 3) 6-9) or by the assays described below.
# B. Glucocorticoid Receptor Cell Assays
# 1. Induction of Aromatase in Fibroblasts (Cell Assay for Transactivation)
# Dexamethasone, a synthetic ligand to the glucocorticoid receptor (GR), induces expression of aromatase in human foreskin fibroblast cells. The activity of aromatase is measured by the conversion of testosterone to estradiol in culture media.
# Human foreskin fibroblast cells (ATCC Cat. No. CRL-2429, designation CCD112SK) are plated on 96 well plates at 50,000 cells per well 5 days before use, in Iscove's Modified Dulbecco's Media (GibcoBRL Life Technologies Cat No. 12440-053) supplemented with 10% charcoal filtered FBS (Clonetech Cat No. SH30068) and Gentamycin (GibcoBRL Life Technologies Cat. No. 15710-064). On the day of the experiment, the media in the wells is replaced with fresh media. Cells are treated with test compounds to final concentrations of 10^−5 M to 10^−8 M, and testosterone to a final concentration of 300 ng/mL. Each well has a total volume of 100 μL. Samples are made in duplicates. Control wells include: (a) wells that receive testosterone only, and (b) wells that receive testosterone plus 2 μM of dexamethasone to provide maximum induction of aromatase. Plates are incubated at 37° C. overnight (15 to 18 hours), and supernatants are harvested at the end of incubation. Estradiol in the supernatant is measured using ELISA kits for estradiol (made by ALPCO, obtained from American Laboratory Products Cat. No. 020-DR-2693) according to the manufacture's instruction. The amount of estradiol is inversely proportional to the ELISA signals in each well. The extent of aromatase induction by test compounds is expressed as a relative percentage to dexamethasone. EC50 values of test compounds are derived by non-linear curve fitting.
# 2. Inhibition of IL-6 Production in Fibroblasts (Cell Assay for Transrepression)
# Human foreskin fibroblast cells produce IL-6 in response to stimulation by pro-inflammatory cytokine IL-1.
# Human foreskin fibroblast cells (ATCC Cat. No. CRL-2429) are plated on 96 well plates at 5,000 cells per well the day before use, in Iscove's Modified Dulbecco's Media (GibcoBRL Life Technologies Cat. No. 12440-053) supplemented with 10% charcoal filtered FBS (Clonetech Cat. No. SH30068) and Gentamycin (GibcoBRL Life Technologies Cat. No. 15710-064). On the next day, media in the wells is replaced with fresh media. Cells are treated with IL-1 (rhIL-1α, R&D Systems Cat. No. 200-LA) to a final concentration of 1 ng/mL, and with test compounds to final concentrations of 10^−5 M to 10^−8 M, in a total volume of 200 μL per well. Samples are done in duplicates. […] Positive control wells receive IL-1 only and represent maximum (or 100%) amount of IL-6 production. Plates are incubated at 37° C. overnight (15 to 18 hours), and supernatants are harvested at the end of incubation. IL-6 levels in the supernatants are determined by the ELISA kits for IL-6 (MedSystems Diagnostics GmbH, Vienna, Austria, Cat. No. BMS213TEN) according to manufacture's instructions. The extent of inhibition of IL-6 by test compounds is expressed in percentage relative to positive controls. IC50 values of test compounds are derived by non-linear curve fitting.
# Evaluation of agonist or antagonist activity of compounds binding to the glucocorticoid receptor may be determined by any of the assays.
# 3. Modulation of Tyrosine Aminotransferase (TAT) Induction in Rat Hepatoma Cells
# Testing of compounds for agonist or antagonist activity in induction of tyrosine aminotransferase (TAT) in rat hepatoma cells. […]
melting point [°C],SMILES,activity as an agonist of the glucocorticoid receptor function (glucocorticoid receptor)
121 to 123,O=S(=O)(NC(Cc1c[nH]c2ccccc12)C(F)(F)F)c1ccccc1 (stereo not shown),–
–,"Cc1cc(C)c(S(=O)(=O)NC(Cc2c[nH]c3ccccc23)C(F)(F)F)c(C)c1 (stereo not shown) [2,4,6-Trimethyl-N-[2,2,2-trifluoro-1-(1H-indol-3-ylmethyl)ethyl]benzenesulfonamide]",activity as an agonist
–,"Cc1cc(C)c(S(=O)(=O)NC(Cn2cc(C)c3ccccc32)C(F)(F)F)c(C)c1 (stereo not shown) [2,4,6-Trimethyl-N-[2,2,2-trifluoro-1-(3-methylindol-1-ylmethyl)ethyl]benzenesulfonamide]",activity as an agonist
–,"Cc1cc(C)c(S(=O)(=O)NC(Cc2c[nH]c3cccc(F)c23)C(F)(F)F)c(C)c1 (stereo not shown) [2,4,6-Trimethyl-N-[2,2,2-trifluoro-1-(4-fluoro-1H-indol-3-ylmethyl)ethyl]benzenesulfonamide]",activity as an agonist
–,"Cc1cc(C)c(S(=O)(=O)NC(Cc2c[nH]c3ccc(F)cc23)C(F)(F)F)c(C)c1 (stereo not shown) [2,4,6-Trimethyl-N-[2,2,2-trifluoro-1-(5-fluoro-1H-indol-3-ylmethyl)ethyl]benzenesulfonamide]",activity as an agonist
–,"Cc1cc(C)c(S(=O)(=O)NC(Cc2c[nH]c3ccc(C)cc23)C(F)(F)F)c(C)c1 (stereo not shown) [2,4,6-Trimethyl-N-[2,2,2-trifluoro-1-(5-methyl-1H-indol-3-ylmethyl)ethyl]benzenesulfonamide]",activity as an agonist
–,"Cc1cc(C)c(S(=O)(=O)NC(Cc2c[nH]c3cc(F)ccc23)C(F)(F)F)c(C)c1 (stereo not shown) [2,4,6-Trimethyl-N-[2,2,2-trifluoro-1-(6-fluoro-1H-indol-3-ylmethyl)ethyl]benzenesulfonamide]",activity as an agonist
–,"Cc1cc(C)c(S(=O)(=O)NC(Cc2c[nH]c3c(F)cccc23)C(F)(F)F)c(C)c1 (stereo not shown) [2,4,6-Trimethyl-N-[2,2,2-trifluoro-1-(7-fluoro-1H-indol-3-ylmethyl)ethyl]benzenesulfonamide]",activity as an agonist
–,"Nc1cc(Cl)cc(Cl)c1S(=O)(=O)NC(Cc1c[nH]c2ccccc12)C(F)(F)F (stereo not shown) [2-Amino-4,6-dichloro-N-[2,2,2-trifluoro-1-(1H-indol-3-ylmethyl)ethyl]benzenesulfonamide]",activity as an agonist
–,"Cc1ccc2[nH]cc(CC(NS(=O)(=O)c3c(N)cc(Cl)cc3Cl)C(F)(F)F)c2c1 (stereo not shown) [2-Amino-4,6-dichloro-N-[2,2,2-trifluoro-1-(5-methyl-1H-indol-3-ylmethyl)ethyl]benzenesulfonamide]",activity as an agonist
–,"Cc1cc(C)c(S(=O)(=O)NC(Cc2c[nH]c3ccccc23)C(F)(F)F)c(N)c1 (stereo not shown) [2-Amino-4,6-dimethyl-N-[2,2,2-trifluoro-1-(1H-indol-3-ylmethyl)ethyl]benzenesulfonamide]",activity as an agonist
–,"Cc1cc(C)c(S(=O)(=O)NC(Cc2c[nH]c3c(C#N)cccc23)C(F)(F)F)c(C)c1 (stereo not shown) [N-[1-(7-Cyano-1H-indol-3-ylmethyl)-2,2,2-trifluoroethyl]-2,4,6-trimethylbenzenesulfonamide]",activity as an agonist
–,"Cc1cc(C)c(S(=O)(=O)NC(Cc2c[nH]c3c(C#N)cc(C)cc23)C(F)(F)F)c(C)c1 (stereo not shown) [N-[1-(7-Cyano-5-methyl-1H-indol-3-ylmethyl)-2,2,2-trifluoroethyl]-2,4,6-trimethylbenzenesulfonamide]",activity as an agonist
